The values below are quoted from earlier work in patent publication US12479917B2, “Methods of treating NSCLC comprising administering platinum doublet chemotherapy followed by an anti-PD-1 antibody and an anti-CTLA-4 antibody” (priority 2018, dated 2025).

The conditions of series [1]: monotherapy, every two weeks; MTD not reached.
The subject of another series is advanced NSCLC. The note with it: second line (2 L).

Consider nivolumab, for which the “maximum tolerated dose (MTD)” value in series [1] is listed as above 10 mg/kg.

As for `Nc1nc2[nH]cc(CCc3ccc(C(=O)N[C@@H](CCC(=O)O)C(=O)O)cc3)c2c(=O)[nH]1` [Pemetrexed], in the series on advanced NSCLC, the “efficacy outcomes compared with docetaxel” value is recorded as “clinically equivalent efficacy outcomes” and the “side effects compared with docetaxel” value is on record as “significantly fewer side effects”.
